CCCCCCC1(CCCCCC)c2cc(Br)ccc2-c2ccc(Br)cc21
solubility (mole fraction)
Conditions | 283.15 K | 293.15 K | 303.15 K | 313.15 K | 323.15 K
in 1,4-dioxane | – | 0.0466 | 0.0801 | 0.113 | 0.17
in THF | 0.0977 | 0.112 | 0.127 | 0.146 | 0.158
in acetonitrile | 0.000305 | 0.000473 | 0.000684 | 0.000954 | 0.0012
in chloroform | 0.0364 | 0.041 | 0.0483 | 0.0543 | 0.0613
in dichloromethane | 0.0468 | 0.0633 | 0.0807 | 0.0987 | 0.118
in ethanol | 0.00158 | 0.00182 | 0.00209 | 0.00233 | 0.00264
in ethyl acetate | 0.0433 | 0.0613 | 0.0873 | 0.114 | 0.144
in isopropanol | 0.000772 | 0.00117 | 0.00191 | 0.00293 | 0.00392
in methanol | 0.000142 | 0.000189 | 0.000293 | 0.000427 | 0.000582
in n-butanol | 0.00329 | 0.00586 | 0.00935 | 0.0127 | 0.0165
in n-hexane | 0.0382 | 0.0578 | 0.0907 | 0.123 | 0.163
in toluene | 0.0918 | 0.121 | 0.152 | 0.188 | 0.242

From BigSolDB 2.1
